{
  "source": "patent US20220265776A1",
  "about": "“COMBINATION” (GENESIS PHARMA SA, priority 2019, published 2022)",
  "key": {"[1]": {"tested_on": "rat model of transient middle cerebral artery occlusion", "assay": "Rat t-MCAO: modified neurological severity score (NSS), scale 0 to 18", "format": "in vivo", "details": "for Modified NSS on Day 2 (mean + SD) / Modified NSS on Day 7 (mean + SD) / percentage change of Modified NSS on Day 2 vs the control group / percentage change of Modified NSS on Day 7 vs the control group: repeated administration (7 days); for modified neurological severity score (NSS) compared with the control group on Day 2 / modified neurological severity score (NSS) compared with the control group on Day 7: monotherapy", "method": "(§1) Test compounds were administrated intravenously 20 minutes before reperfusion and then twice a day thereafter for six consecutive days. The modified neurological severity score (NSS) was graded on a scale of 0 to 18 (in which normal score was 0 and maximal deficit score was represented by 18), on Study Day 2 (one day following surgery) and on Study Day 7 (7 days post-surgery and before study termination); it included a set of clinical-neurological tests (composite of motor, sensory, reflex and balance tests). At study termination brains were harvested, sliced into five 2 mm thick coronal sections and stained with triphenyl tetrazolium chloride (TTC) for infarct size measurement using ImageJ program. Morbidity, mortality, body weight and clinical observation were also recorded. […] The statistical significance (P) of treated groups vs the untreated control group was determined using two-way ANOVA followed by Bonferroni post hoc test, using GraphPad Prism 5 program.\n(§2) Due to mortality in some of the groups, the numbers within the groups were adjusted to have sufficient animals in all the groups.\n(§3) In study Part II, a total of 86 SD male rats (270-320 gr upon arrival) were divided into 9 groups (7 or 15 rats per treated group and 6 rats in the control group). Due to mortality in some of the groups, the numbers within the groups were adjusted to have sufficient animals in all the groups."}, "[2]": {"tested_on": "rat model of transient middle cerebral artery occlusion", "assay": "Rat t-MCAO: brain infarct size (TTC staining, ImageJ)", "format": "in vivo", "details": "for Relative brain infarct volume on Day 7 (%) (mean + SD) / percentage change of relative brain infarct volume on Day 7 vs the control group: repeated administration (7 days); for efficacy when administered as monotherapies: low doses, monotherapy", "method": "as §1, §2, §3"}, "[3]": {"tested_on": "rat model of stroke (middle cerebral artery occlusion)", "details": "10 μg/kg IP loading dose plus 200 ng/h sc infusion beginning 4.5 h or 10 h after onset of ischemia; cited from earlier work"}, "[4]": {"tested_on": "rat thromboembolic model of stroke", "details": "continuous infusion (75 ng/h), at 7 days post middle cerebral artery occlusion; cited from earlier work"}, "[5]": {"details": "Treatment F: potassium canrenoate 1 mg/Kg iv"}, "[6]": {"details": "Treatment G: potassium canrenoate 3 mg/Kg iv"}, "[7]": {"details": "Treatment H: potassium canrenoate 10 mg/Kg iv"}, "[8]": {"details": "lowest doses (treatments A, E and I)"}, "[9]": {"details": "Treatment I: glibenclamide 1 μg/Kg iv"}, "[10]": {"details": "Treatment J: glibenclamide 3 μg/Kg iv"}, "[11]": {"details": "Treatment K: glibenclamide 10 μg/Kg iv"}, "[12]": {"details": "Treatment L: glibenclamide 30 μg/Kg iv"}},
  "data": [
    {"smiles": "C[C@]12CCC(=O)C=C1C=C[C@@H]1[C@@H]2CC[C@@]2(C)[C@H]1CC[C@@]2(O)CCC(=O)[O-].[K+]", "note": "[POTASSIUM CANRENOATE, potassium 3-[(8R,9S,10R,13S,14S,17R)-17-hydroxy-10,13-dimethyl-3-oxo-2,8,9,11,12,14,15,16 octahydro-1H-cyclopenta[a]phenanthren-17-yl]propanoate]", "values": [
      {"measurement": "Modified NSS on Day 2 (mean + SD)", "setting": "[1]; [5]", "result": "12 ± 3"},
      {"measurement": "Modified NSS on Day 7 (mean + SD)", "setting": "[1]; [5]", "result": "8 ± 1"},
      {"measurement": "percentage change of Modified NSS on Day 2 vs the control group", "setting": "[1]; [5]", "result": "[−14%; *]"},
      {"measurement": "percentage change of Modified NSS on Day 7 vs the control group", "setting": "[1]; [5]", "result": "[−38%; ***]"},
      {"measurement": "Modified NSS on Day 2 (mean + SD)", "setting": "[1]; [6]", "result": "11 ± 2"},
      {"measurement": "Modified NSS on Day 7 (mean + SD)", "setting": "[1]; [6]", "result": "10 ± 2"},
      {"measurement": "percentage change of Modified NSS on Day 2 vs the control group", "setting": "[1]; [6]", "result": "[−21%; *]"},
      {"measurement": "percentage change of Modified NSS on Day 7 vs the control group", "setting": "[1]; [6]", "result": "[−23%; *]"},
      {"measurement": "Modified NSS on Day 2 (mean + SD)", "setting": "[1]; [7]", "result": "10 ± 1"},
      {"measurement": "Modified NSS on Day 7 (mean + SD)", "setting": "[1]; [7]", "result": "8 ± 1"},
      {"measurement": "percentage change of Modified NSS on Day 2 vs the control group", "setting": "[1]; [7]", "result": "[−29%; **]"},
      {"measurement": "percentage change of Modified NSS on Day 7 vs the control group", "setting": "[1]; [7]", "result": "[−38%; ***]"},
      {"measurement": "modified neurological severity score (NSS) compared with the control group on Day 2", "setting": "[1]; [8]", "result": "did not show a statistically significant decrease"},
      {"measurement": "modified neurological severity score (NSS) compared with the control group on Day 7", "setting": "[1]; [8]", "result": "did not show a statistically significant decrease"},
      {"measurement": "Relative brain infarct volume on Day 7 (%) (mean + SD)", "setting": "[2]; [5]", "result": "15 ± 6", "unit": "%"},
      {"measurement": "percentage change of relative brain infarct volume on Day 7 vs the control group", "setting": "[2]; [5]", "result": "[−64%; ***]"},
      {"measurement": "Relative brain infarct volume on Day 7 (%) (mean + SD)", "setting": "[2]; [6]", "result": "28 ± 11", "unit": "%"},
      {"measurement": "percentage change of relative brain infarct volume on Day 7 vs the control group", "setting": "[2]; [6]", "result": "[−33%; **]"},
      {"measurement": "Relative brain infarct volume on Day 7 (%) (mean + SD)", "setting": "[2]; [7]", "result": "12 ± 3", "unit": "%"},
      {"measurement": "percentage change of relative brain infarct volume on Day 7 vs the control group", "setting": "[2]; [7]", "result": "[−71%; ***]"},
      {"measurement": "efficacy when administered as monotherapies", "setting": "[2]", "result": "ineffective"}
    ]},
    {"smiles": "COc1ccc(Cl)cc1C(=O)NCCc1ccc(S(=O)(=O)NC(=O)NC2CCCCC2)cc1", "note": "[GLIBENCLAMIDE, 5-chloro-N-[2-[4-(cyclohexylcarbamoyl-sulfamoyl)phenyl]ethyl]-2-methoxybenzamide]", "values": [
      {"measurement": "hemispheric swelling at 24 h and 48-h mortality", "setting": "[3]", "result": "significantly reduced"},
      {"measurement": "modified neurological severity score (NSS) compared with the control group on Day 2", "setting": "[1]; 3 μg/kg dose (treatment J)", "result": "did not show a statistically significant decrease"},
      {"measurement": "Modified NSS on Day 2 (mean + SD)", "setting": "[1]; [9]", "result": "14 ± 1"},
      {"measurement": "Modified NSS on Day 7 (mean + SD)", "setting": "[1]; [9]", "result": "12 ± 1"},
      {"measurement": "percentage change of Modified NSS on Day 2 vs the control group", "setting": "[1]; [9]", "result": "[0%; NS]"},
      {"measurement": "percentage change of Modified NSS on Day 7 vs the control group", "setting": "[1]; [9]", "result": "[−8%; NS]"},
      {"measurement": "Modified NSS on Day 2 (mean + SD)", "setting": "[1]; [10]", "result": "13 ± 3"},
      {"measurement": "Modified NSS on Day 7 (mean + SD)", "setting": "[1]; [10]", "result": "10 ± 1"},
      {"measurement": "percentage change of Modified NSS on Day 2 vs the control group", "setting": "[1]; [10]", "result": "[−7%; NS]"},
      {"measurement": "percentage change of Modified NSS on Day 7 vs the control group", "setting": "[1]; [10]", "result": "[−23%; *]"},
      {"measurement": "Modified NSS on Day 2 (mean + SD)", "setting": "[1]; [11]", "result": "11 ± 3"},
      {"measurement": "Modified NSS on Day 7 (mean + SD)", "setting": "[1]; [11]", "result": "8 ± 2"},
      {"measurement": "percentage change of Modified NSS on Day 2 vs the control group", "setting": "[1]; [11]", "result": "[−21%; **]"},
      {"measurement": "percentage change of Modified NSS on Day 7 vs the control group", "setting": "[1]; [11]", "result": "[−38%; ***]"},
      {"measurement": "Modified NSS on Day 2 (mean + SD)", "setting": "[1]; [12]", "result": "11 ± 3"},
      {"measurement": "Modified NSS on Day 7 (mean + SD)", "setting": "[1]; [12]", "result": "8 ± 1"},
      {"measurement": "percentage change of Modified NSS on Day 2 vs the control group", "setting": "[1]; [12]", "result": "[−21%; **]"},
      {"measurement": "percentage change of Modified NSS on Day 7 vs the control group", "setting": "[1]; [12]", "result": "[−38%; ***]"},
      {"measurement": "modified neurological severity score (NSS) compared with the control group on Day 2", "setting": "[1]; [8]", "result": "did not show a statistically significant decrease"},
      {"measurement": "modified neurological severity score (NSS) compared with the control group on Day 7", "setting": "[1]; [8]", "result": "did not show a statistically significant decrease"},
      {"measurement": "Relative brain infarct volume on Day 7 (%) (mean + SD)", "setting": "[2]; [9]", "result": "33 ± 10", "unit": "%"},
      {"measurement": "percentage change of relative brain infarct volume on Day 7 vs the control group", "setting": "[2]; [9]", "result": "[−21%; NS]"},
      {"measurement": "Relative brain infarct volume on Day 7 (%) (mean + SD)", "setting": "[2]; [10]", "result": "19 ± 9", "unit": "%"},
      {"measurement": "percentage change of relative brain infarct volume on Day 7 vs the control group", "setting": "[2]; [10]", "result": "[−55%; ***]"},
      {"measurement": "Relative brain infarct volume on Day 7 (%) (mean + SD)", "setting": "[2]; [11]", "result": "16 ± 9", "unit": "%"},
      {"measurement": "percentage change of relative brain infarct volume on Day 7 vs the control group", "setting": "[2]; [11]", "result": "[−62%; ***]"},
      {"measurement": "Relative brain infarct volume on Day 7 (%) (mean + SD)", "setting": "[2]; [12]", "result": "17 ± 8", "unit": "%"},
      {"measurement": "percentage change of relative brain infarct volume on Day 7 vs the control group", "setting": "[2]; [12]", "result": "[−60%; ***]"},
      {"measurement": "efficacy when administered as monotherapies", "setting": "[2]", "result": "ineffective"},
      {"measurement": "reduction of cerebral edema, infarct volume and mortality", "setting": "[4]", "result": 50, "unit": "%"}
    ]}
  ]
}
